Experimental findings from US5753617A, “Peptide inhibitors of cellular adhesion” (Centocor, Inc., priority 1995, dated 1998) are described below.

The target of one data set is T1, P-selectin (Homo sapiens, UniProt P16109).
T1 construct: P-selectin is isolated from human platelet lysates; from tissue; host or cells: human platelets (outdated platelet packs from a blood bank)
T1 sequence (P16109 42-830): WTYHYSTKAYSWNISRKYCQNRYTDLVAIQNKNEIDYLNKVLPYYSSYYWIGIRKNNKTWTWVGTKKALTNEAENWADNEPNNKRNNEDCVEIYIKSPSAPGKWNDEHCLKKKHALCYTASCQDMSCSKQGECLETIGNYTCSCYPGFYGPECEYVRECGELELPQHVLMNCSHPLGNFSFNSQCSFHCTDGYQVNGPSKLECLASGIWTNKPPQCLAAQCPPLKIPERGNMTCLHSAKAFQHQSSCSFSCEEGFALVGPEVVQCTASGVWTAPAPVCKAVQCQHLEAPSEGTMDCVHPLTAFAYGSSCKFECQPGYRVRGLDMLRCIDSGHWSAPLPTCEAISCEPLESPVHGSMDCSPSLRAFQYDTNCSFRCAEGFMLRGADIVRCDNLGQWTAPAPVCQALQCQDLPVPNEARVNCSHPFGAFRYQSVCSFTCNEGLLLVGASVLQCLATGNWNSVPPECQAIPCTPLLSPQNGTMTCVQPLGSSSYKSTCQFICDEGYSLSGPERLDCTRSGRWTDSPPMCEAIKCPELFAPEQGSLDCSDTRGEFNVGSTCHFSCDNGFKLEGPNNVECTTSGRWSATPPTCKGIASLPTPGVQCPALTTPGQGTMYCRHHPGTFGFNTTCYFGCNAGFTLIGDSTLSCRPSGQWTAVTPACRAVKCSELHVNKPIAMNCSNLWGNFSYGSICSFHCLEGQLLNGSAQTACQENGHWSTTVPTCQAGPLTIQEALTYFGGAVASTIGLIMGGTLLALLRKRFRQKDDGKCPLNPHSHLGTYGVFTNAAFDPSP
As to the kind of experiment: Inhibition of human neutrophil adhesion to purified P-selectin immobilized on plastic wells. To be noted: inhibiting the binding of human neutrophils to P-selectin. In kind it is cell-based. In a few lines:
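Isolated human neutrophils (2×10^5 per well) in HBSS with Ca2+/Mg2+ and HSA added to wells coated overnight at 4° C with platelet-derived P-selectin (5 micrograms/mL), HSA-blocked; 20 min at 22° C. Nonadherent cells removed by inverted centrifugation at 150 g; adherent cells quantified by myeloperoxidase activity.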

The test system of data set [1] is neutrophil influx in thioglycolate-induced peritonitis. Briefly: Inhibition of neutrophil influx in a rat model of thioglycolate-induced peritonitis. In kind it is in vivo. As for the experimental part:
CD-1 rats (175-200 g) were injected i.p. with 10 ml thioglycollate medium (BBL #21195/21196 lot#H1KBGP). At -5 minutes, 1.5 hours, and 3.5 hours post thioglycollate injection 5 rats were injected with D-arginyl-D-lysyl-cyclo(D-cysteinyl-glycyl-phenylalanyl-D-cysteinyl)-D-tryptophyl-D-threonyl-D-tryptophyl-D-valineamide (Preferred peptide (19)) (0.75 mls at -5, 0.25 mls at 1.5 and 0.25 mls at 3.5). 5 rats were injected with vehicle at the same time points (0.75 mls at -5, 0.50 mls at 1.5, and 0.25 mls at 3.5). 5 rats received thiogycollate only and served as controls. At 4 hours post thioglycollate injection all animals were sacrificed by CO2 asphyxiation. Neutrophils were harvested by flushing the peritoneal cavity with 50 mls of Hanks balanced salt solution w/o Ca and Mg (JHR Biosciences 55-02178P Lot# IL3697) containing 0.3% ultrapure EDTA (JT Baker 4040-01 lot# D42704). White cells were then counted using the Danam Vet 8 cell counter.

The conditions of data set [2]: disulfide bond, water.

Where two headings read alike, the source gives them in different places. Where a SMILES comes first, the peptide text is derived from it. Bridges are numbered along the chain shown (N, C = ends). [ ]: non-standard residue; d: D form. The star is where a group is joined. NHBu = CCCCN*

By IC50 is commonly meant the concentration that gives 50% inhibition. High values mean a need for much substance, low ones inhibition by little substance.

`CC(C)[C@@H](NC(=O)[C@@H](Cc1c[nH]c2ccccc12)NC(=O)[C@H](NC(=O)[C@@H](Cc1c[nH]c2ccccc12)NC(=O)[C@H]1CSSC[C@@H](NC(=O)[C@@H](CCCCN)NC(=O)[C@H](N)CCCNC(=N)N)C(=O)NCC(=O)N[C@@H](Cc2ccccc2)C(=O)N1)[C@H](C)O)C(N)=O` [(19)] (H-[dR][dK][dC]GF[dC][dW][dT][dW][dV]-NH2; disulfide 3-6) gave an IC50 on P-selectin of 6 µM. The “decrease in neutrophil influx in response to thioglycolate stimulation” value in data set [1] (CD-1 rats, thioglycollate i.p., peptide injected at -5 minutes, 1.5 hours and 3.5 hours, peritoneal cells counted at 4 hours) is 67%.
As for `CC(C)[C@@H](NC(=O)[C@@H](CCCNC(=N)N)NC(=O)[C@H](NC(=O)[C@@H](Cc1c[nH]c2ccccc12)NC(=O)[C@H]1CSSC[C@@H](NC(=O)[C@@H](CCCCN)NC(=O)[C@H](N)CCCNC(=N)N)C(=O)NCC(=O)N[C@@H](Cc2ccccc2)C(=O)N1)[C@H](C)O)C(N)=O` [(90)] (H-[dR][dK][dC]GF[dC][dW][dT][dR][dV]-NH2; disulfide 3-6), the ring closure, yield of all isomers in data set [2] (from CC(C)[C@@H](NC(=O)[C@@H](CCCNC(=N)N)NC(=O)[C@H](NC(=O)[C@@H](Cc1c[nH]c2ccccc12)NC(=O)[C@@H](CS)NC(=O)[C@H](Cc1ccccc1)NC(=O)CNC(=O)[C@@H](CS)NC(=O)[C@@H](CCCCN)NC(=O)[C@H](N)CCCNC(=N)N)[C@H](C)O)C(N)=O, DMSO, 0.747 mM, 16.0 h) came out at 18.5%. This compound also displayed an IC50 at P-selectin of 9.9 µM.
In turn, `CC[C@@H](C)[C@H]1NC(=O)[C@H](NC(=O)[C@@H](CCCCN)NC(=O)[C@H](N)CCCNC(=N)N)CSSC[C@H](C(=O)N[C@H](Cc2c[nH]c3ccccc23)C(=O)N[C@@H](C(=O)N[C@H](Cc2c[nH]c3ccccc23)C(=O)N[C@@H](C(N)=O)C(C)C)[C@H](C)O)NC(=O)[C@H]([C@@H](C)CC)NC1=O` [(92)] (H-[dR][dK][dC][dI]I[dC][dW][dT][dW][dV]-NH2; disulfide 3-6) registered a ring closure, yield of all isomers in data set [2] (from CC[C@@H](C)[C@@H](NC(=O)[C@@H](CS)NC(=O)[C@@H](CCCCN)NC(=O)[C@H](N)CCCNC(=N)N)C(=O)N[C@H](C(=O)N[C@H](CS)C(=O)N[C@H](Cc1c[nH]c2ccccc12)C(=O)N[C@@H](C(=O)N[C@H](Cc1c[nH]c2ccccc12)C(=O)N[C@@H](C(N)=O)C(C)C)[C@H](C)O)[C@@H](C)CC, DMSO, 0.0765 mM, 24.0 h) of 17.5%. For the same compound, the IC50 at P-selectin stood at 2.4 µM.
`CC[C@@H](C)[C@H]1NC(=O)[C@H](NC(=O)[C@@H](CCCCN)NC(=O)[C@H](N)CCCNC(=N)N)CSSC[C@H](C(=O)N[C@H](Cc2c[nH]c3ccccc23)C(=O)N[C@@H](C(=O)N[C@H](Cc2c[nH]c3ccccc23)C(=O)N[C@@H](C(N)=O)C(C)C)[C@H](C)O)NC(=O)[C@H](Cc2ccccc2)NC1=O` [(93)] (H-[dR][dK][dC][dI]F[dC][dW][dT][dW][dV]-NH2; disulfide 3-6): the ring closure, yield of all isomers in data set [2] (from CC[C@@H](C)[C@@H](NC(=O)[C@@H](CS)NC(=O)[C@@H](CCCCN)NC(=O)[C@H](N)CCCNC(=N)N)C(=O)N[C@@H](Cc1ccccc1)C(=O)N[C@H](CS)C(=O)N[C@H](Cc1c[nH]c2ccccc12)C(=O)N[C@@H](C(=O)N[C@H](Cc1c[nH]c2ccccc12)C(=O)N[C@@H](C(N)=O)C(C)C)[C@H](C)O, DMSO, 0.671 mM, 16.0 h) is 22.3%. This compound also registered an IC50 on P-selectin of 67.5 µM.
For the compound `CC(C)[C@@H](NC(=O)[C@@H](Cc1c[nH]c2ccccc12)NC(=O)[C@H](NC(=O)[C@@H](Cc1c[nH]c2ccccc12)NC(=O)[C@H]1CSSC[C@@H](NC(=O)[C@@H](CCCCN)NC(=O)[C@H](N)CCCNC(=N)N)C(=O)N[C@@H](Cc2c[nH]cn2)C(=O)N[C@@H](Cc2ccccc2)C(=O)N1)[C@H](C)O)C(N)=O` [(94)] (H-[dR][dK][dC]HF[dC][dW][dT][dW][dV]-NH2; disulfide 3-6), the ring closure, yield of all isomers in data set [2] (from CC(C)[C@@H](NC(=O)[C@@H](Cc1c[nH]c2ccccc12)NC(=O)[C@H](NC(=O)[C@@H](Cc1c[nH]c2ccccc12)NC(=O)[C@@H](CS)NC(=O)[C@H](Cc1ccccc1)NC(=O)[C@H](Cc1c[nH]cn1)NC(=O)[C@@H](CS)NC(=O)[C@@H](CCCCN)NC(=O)[C@H](N)CCCNC(=N)N)[C@H](C)O)C(N)=O, DMSO, 0.714 mM) was 10.7%. This compound showed an IC50 at P-selectin of 2.2 µM.
Compound `CCCCNC(=O)[C@H](CCC(N)=O)NC(=O)[C@@H](Cc1c[nH]c2ccccc12)NC(=O)[C@H](NC(=O)[C@@H](Cc1c[nH]c2ccccc12)NC(=O)[C@H]1CSSC[C@@H](NC(=O)[C@@H](CCCCN)NC(=O)[C@H](N)CCCNC(=N)N)C(=O)NCC(=O)N[C@@H](Cc2ccccc2)C(=O)N1)[C@H](C)O` [(102)] (H-[dR][dK][dC]GF[dC][dW][dT][dW]Q-NHBu; disulfide 3-6) came in with a ring closure, yield of all isomers in data set [2] (from CCCCNC(=O)[C@H](CCC(N)=O)NC(=O)[C@@H](Cc1c[nH]c2ccccc12)NC(=O)[C@H](NC(=O)[C@@H](Cc1c[nH]c2ccccc12)NC(=O)[C@@H](CS)NC(=O)[C@H](Cc1ccccc1)NC(=O)CNC(=O)[C@@H](CS)NC(=O)[C@@H](CCCCN)NC(=O)[C@H](N)CCCNC(=N)N)[C@H](C)O, DMSO, 0.681 mM) of 21.5%. The IC50 at P-selectin came out at 8 µM.
In turn, `CC(C)[C@@H](NC(=O)[C@@H](Cc1c[nH]c2ccccc12)NC(=O)[C@H](NC(=O)[C@@H](Cc1c[nH]c2ccccc12)NC(=O)[C@H]1CSSC[C@@H](NC(=O)[C@@H](CCCCN)NC(=O)[C@H](N)CCCNC(=N)N)C(=O)NCC(=O)N[C@@H](Cc2ccccc2)C(=O)N1)C(C)C)C(=O)O` [(103)] (H-[dR][dK][dC]GF[dC][dW][dV][dW][dV]-OH; disulfide 3-6) had a ring closure, yield of all isomers in data set [2] (from CC(C)[C@@H](NC(=O)[C@@H](Cc1c[nH]c2ccccc12)NC(=O)[C@H](NC(=O)[C@@H](Cc1c[nH]c2ccccc12)NC(=O)[C@@H](CS)NC(=O)[C@H](Cc1ccccc1)NC(=O)CNC(=O)[C@@H](CS)NC(=O)[C@@H](CCCCN)NC(=O)[C@H](N)CCCNC(=N)N)C(C)C)C(=O)O, air, Cu wire, ammonium acetate, 0.605 mM, 22.0 h) of 2.7%. Also, the IC50 at P-selectin came to 42.7 µM.
`CC(C)[C@@H](NC(=O)[C@@H](Cc1c[nH]c2ccccc12)NC(=O)[C@H](NC(=O)[C@@H](Cc1c[nH]c2ccccc12)NC(=O)[C@H]1CSSC[C@@H](NC(=O)[C@@H](CCCCN)NC(=O)[C@H](N)CCCNC(=N)N)C(=O)NCC(=O)N[C@@H](Cc2ccccc2)C(=O)N1)[C@H](C)O)C(N)=O` [Preferred peptide (19), D-Arginyl-D-lysyl-cyclo(D-cysteinyl-glycyl-phenylalanyl-D-cysteinyl-)-D-tryptophyl-D-threonyl-D-tryptophyl-D-valine-amide] (H-[dR][dK][dC]GF[dC][dW][dT][dW][dV]-NH2; disulfide 3-6): the “inhibition of neutrophil influx (result in words)” value in data set [1] (rat thioglycolate-induced peritonitis, FIG. III) is reported as “inhibition of neutrophil influx”.
